# Laboratory results: patent US6692928B1, “Methods for identifying cardiovascular agents” (New England Medical Center Hospitals, Inc., priority 1996, dated 2004)
# Read-outs that look alike come from different tables or passages of the source.
# Assays:
# estrogen receptor = target: T1, estrogen receptor (Homo sapiens, UniProt P03372); test: ERE-Luc reporter activation of the estrogen receptor in transfected cells; format: cell-based
# T1 construct: expressed in transfected cells; host or cells: PVEC, HSVSMC, human aortic VSMC, HeLa (transient transfection)
# T1 sequence (P03372 1-595): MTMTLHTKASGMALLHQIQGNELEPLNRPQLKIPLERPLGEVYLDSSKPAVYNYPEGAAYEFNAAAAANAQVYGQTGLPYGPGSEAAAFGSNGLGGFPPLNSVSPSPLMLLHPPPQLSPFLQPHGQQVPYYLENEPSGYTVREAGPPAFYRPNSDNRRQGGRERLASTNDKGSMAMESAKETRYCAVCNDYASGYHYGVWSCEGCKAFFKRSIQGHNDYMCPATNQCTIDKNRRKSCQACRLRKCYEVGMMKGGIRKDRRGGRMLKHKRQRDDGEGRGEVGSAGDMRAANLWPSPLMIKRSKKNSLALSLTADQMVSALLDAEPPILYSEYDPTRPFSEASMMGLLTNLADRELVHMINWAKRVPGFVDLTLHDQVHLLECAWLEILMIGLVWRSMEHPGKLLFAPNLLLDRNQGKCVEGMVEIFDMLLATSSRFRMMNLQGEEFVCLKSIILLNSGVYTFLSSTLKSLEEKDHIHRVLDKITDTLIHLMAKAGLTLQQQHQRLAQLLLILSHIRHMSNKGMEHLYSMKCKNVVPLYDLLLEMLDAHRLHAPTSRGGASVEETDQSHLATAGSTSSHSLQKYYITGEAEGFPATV
# Protocol: The cells were then cultured for 48 hours in serum-free medium in the absence or presence of EGF (100 ng/ml).
# eNOS [1] = test: eNOS activity in ovine pulmonary aortic endothelial cells (PAEC); format: cell-based; details: for basal eNOS activity: no E2
# Source text: (§1) Several molecular and pharmacologic interventions can disrupt this rapid ERα-eNOS signaling pathway.
# human eNOS gene = test: eNOS luciferase reporter in rat cardiomyocytes; format: cell-based; details: 1 nM E2, 48 hours
# Source text: (§2) ER-regulation of two cardiac target genes, iNOS and eNOS, were studied in transient transfection experiments using either an iNOS-luciferase reporter plasmid (containing 1.1 Kb of the 5′-flanking region of the human iNOS gene driving expression of the luciferase cDNA) or an eNOS luciferase reporter plasmid (containing 1.6 Kb of the 5′ flanking region of the human eNOS gene driving expression of the luciferase cDNA). […] In these experiments, E2 increased the abundance of iNOS protein (50+/−23-fold; n=3; p<0.05) as well as eNOS protein (15.7+/−4.3 fold; n=3; p<0.05).
# eNOS protein = eNOS protein level by immunoblotting; format: cell-based, rat; details: n=3
# Source text: as §2
# eNOS [2] = test: eNOS activity in transfected COS 7 cells; format: cell-based
# Source text: In contrast, ERα and eNOS coexpression had no effect on basal (unstimulated) eNOS activity (102+/−33% of activity in sham-transfected cells (ERα(−)).
# [3] = tested on: endothelium-denuded aortic rings; test: Mouse aortic vascular ring bioassay, phenylephrine-induced constriction; details: male mice
# Source text: An eight-chamber vascular ring bioassay system may be used to study vasomotion in vascular rings from mice. Vascular contraction and relaxation may be examined in endothelial-intact and endothelial-denuded mouse aortic vascular rings. […] The mouse aortic ring experiments may be carried out in rings from wild type, ERαKO and ERβKO animals.
# iNOS protein = iNOS protein level by immunoblotting; format: cell-based, rat; details: n=3
# Source text: as §2
# vascular injury response = details: 14 days after carotid injury, physiologic levels
# Source text: Vascular medial are increases and smooth muscle cell proliferation were quantitated 14 days following cartoid injury in ovariectomized female mice treated with vehicle or physiologic levels of 17-β estradiol.
# human iNOS gene = test: iNOS-luciferase reporter in rat cardiomyocytes; format: cell-based; details: 1 nM E2, 48 hours
# Source text: as §2
# MAP kinase = MAP kinase activity in PAEC; format: cell-based, ovine; details: 5 minute exposure, 10^−8M E2
# Source text: as §1
# VEGF gene [4] = test: VEGF-luciferase reporter, transiently transfected HSVSMC; format: cell-based, human; details: VEGF-luciferase + estrogen receptor α construct, 1 μM estrogen, n=12
# Source text: (§3) To study the role of estrogen on expression of the VEGF gene in vascular smooth muscle cells, human saphenous vein smooth muscle cells (HSVSMC) and HeLa cells were transiently transfected with a VEGF-luciferase reporter construct. In this reporter construct, expression of luciferase is under the control of a 1.2 kB fragment of the murine VEGF gene regulatory region. The cells were also transfected with an estrogen receptor α expression construct. All of the results described below have been normalized for transfection efficiency.
# vascular injury = test: Mouse carotid injury model, L-NAME and eNOS knockout studies; format: in vivo, mice
# Source text: Two endpoints were routinely analyzed. First, computerized morphometrics were collected to examine the extent of vascular injury by quantitating medial area measurements. Second, BrdU labeling of VSMC and endothelial cells that proliferated following the injury was quantitated, which required extensive immunohistochemical staining for (i) BrdU, (ii) smooth muscle α-actin, and (iii) Factor VIII-related antigen (endothelial cells).
# The studies may also be carried out in wild type mice and mice lacking ERα, ERβ, eNOS, iNOS, or nNOS, or in mice lacking a combination of these proteins. The level of NOS isoforms may be examined using isoform-specific antibodies.
# pERE-Luc reporter = pERE-Luc reporter in GH3B6 cells; format: cell-based, rat; details: same conditions (estrogen 10^−6M, 48 hours)
# [5] = estrogen replacement therapy, by as much as; cited from earlier work
# VEGF expression [6] = test: VEGF expression in rat VSMC (A7r5 cells); format: cell-based
# VEGF gene [7] = test: VEGF-luciferase reporter, transiently transfected HeLa cells; format: cell-based
# Source text: as §3
# PAEC = test: Protein tyrosine phosphorylation in PAEC; format: cell-based
# Protocol: An immortalized PAEC line retains the ER-eNOS activation pathway completely and provides a useful reagent for identifying other members of the pathway. Experiments indicate that a number of proteins are rapidly tyrosine phosphorylated following exposure of PAEC to estrogen. This occurs within 5-10 minutes and includes a series of low molecular weight proteins (15-40 Kd), as well as several larger proteins.
# VEGF expression [8] = test: pmVEGF-Luc reporter in GH3B6 cells; format: cell-based, rat; details: estrogen 10^−6M, 48 hours
# Source text: (§4) One useful reporter construct is pmVEGF-Luc. In this reporter construct, a 1.6 kB fragment of genomic DNA located upstream of the murine vascular endothelial cell growth factor (VEGF) gene has been inserted into the pGL2-Basic luciferase reporter plasmid (Promega; Madison, Wis.). The 1.6 kB fragment includes the transcription start site, 1.2 kB of sequence upstream of the start site, and 0.4 kB of sequence downstream of the start site. Useful variants of this reporter plasmid can be made by deleting a portion of the murine VEGF control region. For example, pVEGF-Luc-Apa/Kpn is identical to pVEGF-luc except that 455 bp at the 5′ end of the 1.6 kB fragment have been removed; pVEGF-Luc-Mlu is identical to pVEGF-luc except that 768 bp at the 5′ end of the 1.6 kB fragment have been removed; and pVEGF-Luc-Sma is identical to pVEGF-luc except that 455 bp at the 5′ end of the 1.6 kB fragment have been removed. Similar reporter constructs can be created using upstream regulatory sequences from the human VEGF gene. For example, phVEGF-Luc is a reporter construct in which 5.1 kb genomic DNA upstream of the human VEGF coding sequence inserted into the pGL2-Basic luciferase reporter plasmid. This particular construct includes 3.4 kb of sequence upstream of the VEGF transcription start site and 1.7 kb untranslated sequence downstream of the transcription start site.
# VEGF expression [9] = test: pmVEGF-Luc reporter in WB572 cells; format: cell-based, human; details: estrogen 10^−6M, 48 hours
# Source text: as §4
compound,measurement,setting,value
EGF: epidermal growth factor,effect on luciferase activity,"estrogen receptor; HeLa cells, EGF 100 ng/ml, 48 hours, serum-free",no effect
same,increase in luciferase activity,"estrogen receptor; PVEC, HSVSMC and human aortic VSMC, EGF 100 ng/ml, 48 hours, serum-free",~3 fold
C[C@]12CC[C@@H]3c4ccc(O)cc4CC[C@H]3[C@@H]1CC[C@H]2O [17α-estradiol],eNOS activity,"eNOS [1]; PAEC, 10^−12 to 10^−6M",had no effect
"C[C@]12CC[C@@H]3c4ccc(O)cc4CC[C@H]3[C@@H]1CC[C@@H]2O [E2, 17β-estradiol]",increase of eNOS reporter activity,human eNOS gene; n=9,6.9+/−0.06 fold
same,increase in abundance of eNOS protein,eNOS protein,15.7+/−4.3 fold
same,eNOS activity,eNOS [2]; COS 7 cells transfected with eNOS alone,had no effect
same,increase in eNOS activity,"eNOS [2]; COS 7 cells transfected with eNOS and ERα, acute stimulation",> 3 fold
same,phenylephrine-induced constriction,[3]; chronic (18h) treatment,inhibited contraction
same,increase in abundance of iNOS protein,iNOS protein,50+/−23 fold
same,eNOS activity,"eNOS [1]; PAEC, E2 10^−8M",stimulates eNOS activity
same,time to maximal eNOS stimulation,"eNOS [1]; PAEC, E2 10^−8M",≤ 5 min
same,"vascular injury measures (medial area increase, smooth muscle cell proliferation)",vascular injury response; estrogen receptor α knockout ovariectomized female mice,markedly inhibited all measures of vascular injury
same,"vascular injury measures (medial area increase, smooth muscle cell proliferation)",vascular injury response; wild-type ovariectomized female mice,markedly inhibited all measures of vascular injury
same,increase of iNOS reporter activity,human iNOS gene; n=9,8.1+/−0.02 fold
same,MAP kinase activity,MAP kinase,causes an increase in MAP kinase activity
O=c1c(-c2ccc(O)cc2)coc2cc(O)cc(O)c12 [genistein],inhibition of acute eNOS response to E2,eNOS [1]; PAEC,completely inhibit
same,basal eNOS activity,eNOS [1]; PAEC,do not alter basal eNOS activity
estrogen,increase of luciferase expression,VEGF gene [4],1.7±0.2 fold
same,protection against injury (medial area endpoint),"vascular injury; eNOS KO mice, ovariectomized female",still able to protect against injury
same,activation of pERE-Luc reporter,pERE-Luc reporter,8 fold
same,reduction of the incidence of coronary artery disease,[5],30-50%
same,activation of VEGF expression,VEGF expression [6],did not activate VEGF expression
same,increase of luciferase expression,"VEGF gene [7]; HeLa cells co-transfected with estrogen receptor α expression plasmid, n=21",4.2±0.8 fold
same,effect on luciferase expression,"VEGF gene [7]; HeLa cells without estrogen receptor α, estrogen containing media",no effect
same,time of protein tyrosine phosphorylation after exposure,PAEC,5 to 10 min
same,effect on luciferase activity,VEGF expression [8],no effect
same,increase in luciferase activity,VEGF expression [9],1.8 fold
COc1cccc(-c2cc(=O)c3ccccc3o2)c1N [PD98059],inhibition of acute eNOS response to E2,eNOS [1]; PAEC,completely inhibit
herbamycin A,inhibition of acute eNOS response to E2,eNOS [1]; PAEC,completely inhibit
same,basal eNOS activity,eNOS [1]; PAEC,do not alter basal eNOS activity
"C[C@]12CC[C@@H]3c4ccc(O)cc4C[C@@H](CCCCCCCCC[S+]([O-])CCCC(F)(F)C(F)(F)F)[C@H]3[C@@H]1CC[C@@H]2O (stereo partly drawn) [ICI 182,780]",inhibition of E2 activation of eNOS reporter,human eNOS gene,blocked fully
same,inhibition of acute eNOS response to E2,eNOS [1]; PAEC,fully inhibited
same,inhibition of the enhanced eNOS response,eNOS [1]; PAEC overexpressing ER,inhibited completely
same,basal eNOS activity,eNOS [1]; PAEC,caused no change
same,inhibition of E2 activation of iNOS reporter,human iNOS gene,completely inhibited
same,inhibition of E2-induced increase in MAP kinase activity,MAP kinase,completely inhibited
CC/C(=C(\c1ccccc1)c1ccc(OCCN(C)C)cc1)c1ccccc1 [tamoxifen],inhibition of acute eNOS response to E2,eNOS [1]; PAEC,fully inhibited
same,basal eNOS activity,eNOS [1]; PAEC,caused no change
same,inhibition of E2-induced increase in MAP kinase activity,MAP kinase,completely inhibited
COC(=O)[C@@H](N)CCCNC(=N)N[N+](=O)[O-] [L-NAME],effect on the 17β estradiol inhibition of contraction,[3],reversed the inhibition
same,effect on estrogen protection against vascular injury (medial area),"vascular injury; co-administration with estrogen, ovariectomized female mice",negated
PDGF,estrogen receptor activation,"estrogen receptor; all cell types studied (PVEC, HSVSMC, human aortic VSMC, HeLa)",did not activate the estrogen receptor
